Earlier results in patent publication US6541263B2, “Determination of corticosteroids in human plasma using micromass LC/MS/MS” (Euro-Celtique, S.A. Luxembourg, priority 2001, dated 2003).

Tested on: eosinophils
Conditions: IL-5-mediated survival

C[C@]12CCC(=O)C=C1CC[C@@H]1[C@@H]2[C@@H](O)C[C@@]2(C)[C@H]1CC[C@]2(O)C(=O)CO [hydrocortisone]
inhibition of IL-5-mediated eosinophil survival: dose-dependent inhibition
